# Experimental data: patent publication US9732311B2, “Alcoholic compositions having a lowered risk of acetaldehydemia” (Deuteria Beverages, LLC, priority 2009, dated 2017)
# Like-named read-outs stand apart in the source and are kept apart here.
# Experiments:
# sheep liver ALDH = conditions: literature (Hart and Dickinson 1978); cited from earlier work
# [1] = oral
# Description: The subject was a person, 154 kg, with no known abnormalities of ethanol metabolism. Experiments were conducted after an overnight fast. 1,1-Dideuterioethanol, 99 atom % D (CDN Isotopes; Quebec, Canada) (70 mL) was diluted to 500 mL with orange juice, and the resulting beverage was consumed by the subject over the course of five minutes. The mouth and palate were rinsed with orange juice, and data points were then obtained, in triplicate, every 10 minutes with a commercial breath analyzer (AlcoHAWK™ Pro, Q3 Innovations Inc., Independence, Iowa, U.S.A.) The control experiment employed 175 mL of commercial vodka (80 proof; 40% ethanol) but was otherwise identical.
# Each data point in the FIGURE is the average of the three measurements taken at each time point.
# horse liver ALDH = conditions: literature (Feldman and Weiner 1972); cited from earlier work
smiles,measurement,setting,value
[2H]C(C)=O [acetaldehyde-1-d],deuterium isotope effect,sheep liver ALDH,no isotope effect
"CCO [ethanol, reference compound]",time after ingestion at which peak blood concentrations of ethanol are reached,"[1]; human, ordinary ethanol (normally)",20 to 30 min
"[2H]C([2H])(C)O [deuterated ethanol, 1,1-Dideuterioethanol]",absorption relative to ethanol having a natural isotopic abundance,"[1]; human subject, FIG. 1",substantially retarded
same,"areas under the curves of blood level vs time, deuterated vs ordinary ethanol","[1]; human subject, FIG. 1",substantially equivalent
same,rate of clearance relative to ethanol having a natural isotopic abundance,"[1]; human subject, FIG. 1",reduced
same,time after ingestion at which peak blood concentrations of ethanol are reached,"[1]; human subject, after overnight fast, 70 mL diluted to 500 mL with orange juice",60 to 120 min
same,reduction of peak blood concentration,"[1]; human subject, relative to non-deuterated ethanol",15-20%
[2H]C(=O)CC [propionaldehyde-1-d],deuterium isotope effect,horse liver ALDH,no isotope effect
